Reference: patent US9505798B2, “Steroid compounds as RORyt modulators and uses thereof” (New York University, priority 2010, dated 2016)

Legend:
[1] = molecular target: T1, human RORγt (Homo sapiens, UniProt P51449); experiment: IL-17a induction in human CD4+ T cells transduced with RORαd, RORβ or RORγt; format: cell-based
T1 construct: expressed in transfected cells; host or cells: human CD4+ T cells (cord blood or adult blood), lentiviral HDV-IRES-GFP/HSA vectors
T1 sequence (P51449 1-497 isoform P51449-2): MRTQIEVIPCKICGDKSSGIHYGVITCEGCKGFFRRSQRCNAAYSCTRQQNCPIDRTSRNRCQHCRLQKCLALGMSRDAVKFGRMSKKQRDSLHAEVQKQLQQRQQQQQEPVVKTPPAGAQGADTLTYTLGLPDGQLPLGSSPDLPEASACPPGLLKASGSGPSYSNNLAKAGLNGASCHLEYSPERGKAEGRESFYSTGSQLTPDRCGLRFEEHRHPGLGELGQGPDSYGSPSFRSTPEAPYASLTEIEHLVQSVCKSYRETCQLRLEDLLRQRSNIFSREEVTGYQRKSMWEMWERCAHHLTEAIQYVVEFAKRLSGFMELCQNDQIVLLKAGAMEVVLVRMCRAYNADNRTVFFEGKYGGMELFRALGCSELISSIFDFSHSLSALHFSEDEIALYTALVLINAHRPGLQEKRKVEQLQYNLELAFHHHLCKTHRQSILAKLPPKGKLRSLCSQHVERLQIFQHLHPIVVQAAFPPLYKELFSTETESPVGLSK
Description: GFP expressing cells were gated for analysis. DMSO, Dig(dhd) (40 μM) or Dig(sal) (10 μM) was added 6-8 h after viral transduction. c, Flow cytometry of the production of IL-17a and IFN-γ by human naive cord blood T cells cultured for six days in the presence of IL-2, IL-23, and IL-1β, with various concentrations of TGF-β. DMSO, Dig(dhd), or Dig(sal) at indicated concentrations (μM) was added 16 h after cytokine addition.
Blood samples were obtained from the New York Blood Center. Mononuclear cells were prepared from buffy coats from healthy adult donors or from cord blood, using FicollPAQUE gradients. CD4^+ T cells were magnetically selected (autoMACS, Miltenyi). Adult memory CD4^+ T cell subsets were further purified as CD3^+CD4^+CD25^− CD45RO^+CCR6^+CD161^+ by cell sorting on a FACSAria (BD). Naive CD4^+ T cells were isolated from cord blood as CD3^+CD4^+CD45RA^+HLA-DR^−CD25^−DAPI^−. Memory cells were activated with anti-CD3/CD28 coated beads (1 bead/cell) in T cell media (see above) supplemented with 100 U/mL IL-2 (Peprotech), 10 ng/mL IL-1b and 10 ng/mL IL-23 (eBioscience). Naive cells were activated with anti-CD3/CD28 beads and cultured with the same cytokines, and TGF-b (0, 0.1, 1, or, 10 ng/mL) (Peprotech), in XVIVO-20 (Lonza) media. […] Naive CD4^+ T cells, cultured in XVIVO-20 media supplemented 100 U/mL IL-2 (Peprotech), were transduced with RORad-IRES-GFP or RORγt-IRES-GFP on day 1 and analyzed on day 6. GFP expressing cells were gated for analysis. DMSO or compounds were added 6-8 hours after the viral transduction.
Blood samples were obtained from the New York Blood Center. Mononuclear cells were prepared from buffy coats from healthy adult donors or from cord blood, using FicollPAQUE gradients. CD4^+ T cells were magnetically selected (autoMACS, Miltenyi). Adult memory CD4+ T cell subsets were further purified as CD3^+CD4^+CD25^−CD45RO^+CCR6^+CD161^+ by cell sorting on a FACSAria (BD). […] Naive CD4+ T cells, cultured in XVIVO-20 media supplemented with 100 U/mL IL-2 (Peprotech), were transduced with RORαd-IRES-GFP or RORγt-IRES-GFP on day 1 and analyzed on day 6. […]

[2] = test system: Th17 cell transfer-mediated EAE; experiment: Th17 cell transfer-mediated (passive) EAE; format: in vivo, mouse; settings: daily from day 2, RAG-2-deficient mice

| SMILES | RORγt-mediated IL-17a induction (versus RORαd) ([1]; 40 μM, FIG. 3b) | onset and severity of Th17 cell transfer-mediated EAE [2] | RORαd-, β- or γt-mediated induction of IL-17a ([1]; human T cells expressing murine Na+/K+-ATPase) |
| --- | --- | --- | --- |
| CC1O[C@@H](OC2C(C)O[C@H](OC3C(C)O[C@@H](O[C@H]4CC[C@@]5(C)[C@H](CC[C@@H]6[C@@H]5C[C@@H](O)[C@]5(C)[C@@H](C(CO)CCO)CC[C@]65O)C4)C[C@H]3O)C[C@H]2O)C[C@@H](O)C1O (stereo partly drawn) [Compound 13, 20,22-Dihydrodigoxin-21,23-diol] | selectively suppressed |  |  |
| C[C@H]1O[C@@H](O[C@H]2[C@@H](O)C[C@H](O[C@H]3[C@@H](O)C[C@H](O[C@H]4CC[C@@]5(C)[C@H](CC[C@@H]6[C@@H]5C[C@@H](O)[C@]5(C)[C@@H](C7=CC(=O)OC7)CC[C@]65O)C4)O[C@@H]3C)O[C@@H]2C)C[C@H](O)[C@@H]1O [Digoxin] |  | delayed onset and reduced severity | inhibited only RORγt-mediated induction of IL-17a |
